Reference: paper PMC7125190, “Native/citrullinated LL37-specific T-cells help autoantibody production in Systemic Lupus Erythematosus” (Scientific Reports, 2020)

How the values were obtained:
[1] = system: SLE/CLE skin and kidney, HD skin; test: Immunohistochemistry and laser scanner confocal microscopy of tissues; design: species or system human; settings: for presence in SLE and CLE target organs: IHC and LSM, skin (dermis) and kidney; for kidney biopsies with DNA filaments bound to LL37 and/or cit-LL37: lupus nephritis, four of seven biopsies
Description: (§1) Immunohistochemistry and laser scanner confocal microscopy (LSM)
We performed staining on […] paraffin or frozen sections of human lupus erythematosus skin specimens obtained from CHUV, Dept. of Dermatology. Staining with anti-cit-LL37 Mabs was performed using the antibodies Mab142 and Mab137 at 1:40 dilution, followed by incubation with a […] (Abcam). HRP and DAB (DAKO) were used to develop the color. Nuclear staining was performed with Mayer’s haematoxylin. […]
(§2) Frozen or paraffin-included SLE renal biopsies, obtained from Policlinico Umberto I, Rome, IT or CHUV Lausanne, CH, were stained, after saturation with blocking buffer (PBS, 0.05% tween 20, 4% BSA) for 1 hour at room temperature. Bopsies in paraffin were stained after de-paraffination in xilene (5 minutes, two times), followed by passages in: absolute ethanol (3 minutes), 95% ethanol in water (3 minutes), 80% ethanol in water (3 minutes), 70% ethanol in water (3 minutes), and antigen retrieval (5 minutes at […]
95°C in 10 mM sodium citrate, pH 6.0). Antibodies (Mab142 or Mab137) were added at 1:50 dilution (all diluited in blocking buffer) (isotype control was added at 1:100 concentration) for 1 hour at room temperature in a humidified chamber. Anti-C9 (Atlas antibodies, Sweden) was added at 1:50 dilution (all antibody dilutions were in blocking buffer). Slides were washed three times for 3 minutes under agitation with PBS 0.1% tween 20 and incubated with donkey anti-mouse or anti-rabbit secondary antibody or mouse anti-goat antibody, conjugated with AlexaFluor 647, Alexa Fluor 568 or 594 or AlexaFluor 488, depending on the combinations of markers analyzed (in humidified chamber). Slides were washed again, and mounted in Prolong Gold anti-fade media containing a DNA dye (DAPI) (Molecular Probes), before analysis with a confocal microscope, objectives 20x, or 40x and 60x in oil immersion. Images were taken by a FV1000 confocal microscope (Olympus, Tokyo, Japan), using a Olympus planapo objective 40x or 60x oil A.N. 1,42.
Excitation light was obtained by a Laser Dapi 408 nm for DAPI, an Argon Ion Laser (488 nm) for FITC (Alexa 488), a Diode Laser HeNe (561 nm) for Alexa 568, and a Red Diode Laser (638 nm) for Alexa 647. DAPI emission was recorded from 415 to 485 nm, FITC emission was recorded […]
For quantification of LL37 and cit-LL37 in renal/skin biopsies, we counted the specific staining spots in at least 3 sections from each patient, by using the ImageJ64 software. For comparison we also counted the staining in HD skin, as background staining. To estimate the percent of co-localization between IgG and LL37 staining we measured, in three sections for each patient, the total IgG or LL37 staining in single color images and than on merge images we assessed the spots that indicates the co-localization IgG/LL37.
Reactivity of mouse anti-LL37 monoclonal antibodies (Mab137 and Mab142) Biotinylated native LL37, cit-SCR LL37, SCR LL37, cit-LL37, and the other citrullinated and non-citrullinated control antigenic peptides (also biotinylated) were diluted at 2-to-5 µg/mL and added to the wells over night at 4°C. Excess unbound peptides were washed away with wash buffer (PBS

PBMCs = test: LL37-specific T-cell help: autoantibodies in PBMC culture supernatants by ELISA; type: cell-based, human; settings: for anti-LL37/anti-cit-LL37 antibodies in culture supernatants: SLE PBMCs, 7 days
Description: Anti-native/cit-LL37, other antigen antibodies (anti-DNA and anti-RNA), and total anti-human IgG were measured by ELISA as described. Briefly, 96-well flat-bottom plates (Non-Binding surface polystyrene, Corning, USA) are coated with 2 μg/mL of native LL37/cit-LL37 or control proteins or human DNA or human RNA[9] or anti-human IgG antibody (Sigma) in carbonate buffer (0.1 M NaHCHO3, pH 9) for 2 hours (or over night) and washed four times with PBS 0.1% Tween-20. This washing buffer was used for washing at all steps. The blocking buffer containing 2% bovine serum albumin (BSA, Sigma) in PBS was used for at least 1 hour (or over night) to saturate unspecific binding sites. After washing, sera were diluted at various concentrations (usually 1:100 or 1:200) in PBS 2% BSA (cell culture supernatants were diluted 1:2, 1:4 or 1:10) followed by 1 hour incubation with a horseradish peroxidase–conjugated (HRP) goat anti-human IgG (Sigma-Aldrich), diluted 1:10,000 in PBS. The color was developed for 5 minutes with 3,3’,5,5’-tetramethylbenzidine (TMB) substrate (Sigma-Aldrich). The reaction was stopped by adding 50 μl of 2 N H2SO4, and absorbance determined at 450 nm with a reference wavelength of 540 nm. Anti-dsDNA in sera of lupus patients were detected by the standard clinical test Kallestad Crithidia luciliae Complete Kits for detection and semi-quantitation of autoantibodies to native DNA (nDNA) antigens by indirect fluorescence antibody (IFA) procedure. ELISA for detection of anti-tetanus antibodies (anti-TT) was from Abnova (Taiwan).
Peptide-MHC-tetramer staining of T-cell lines/clones and blood T-cells
Peptide-MHC-tetramers (Table S4) were from ProImmune, (UK), TC Metrix, (CH), Benaroya, (USA) and ImmunAware (Denmark). Staining was performed for 40 minutes at 37°C, followed by staining for CD4 (4°C, 20 minutes). Before flow cytometry-acquisition, cells were labelled with PercP-conjugated 7-AAD to exclude dead cells.
LL37 specific T-cell help for production of autoantibodies
We cultured patient PBMCs with LL37 or control antigens and low doses of hrIL-2 (added at day 6, 10U/mL), and we detected appearance of autoantibodies in the culture supernatants by ELISA at various time points (from 7-to 10 days and, when needed, after a second stimulation with autologous PBMCs and antigen). In parallel, we monitored appearance of markers typical of B-cells/plasma cells (CD20, CD27, CD38, CD138) in the CD3neg cells by flow cytometry.
as §1
We performed staining on […] paraffin or frozen sections of human lupus erythematosus skin specimens obtained from CHUV, Dept. of Dermatology. Staining with anti-cit-LL37 Mabs was performed using the antibodies Mab142 and Mab137 at 1:40 dilution, followed by incubation with a […] (Abcam). HRP and DAB (DAKO) were used to develop the color. Nuclear staining was performed with Mayer’s haematoxylin.
as §2, with “To visualize NETs, we seeded neutrophils on coverslips pre-treated with polylysine and stimulated them with various stimuli to induce release of the NETs. After 3 hours, cells were gently washed and stained with anti-CD15-PE or biotinylated polyclonal rabbit anti-LL37 antibodies (Innovagen), followed by addition of AlexaFluor 488-streptavidin. Frozen” for “Frozen”

| Substance | presence in SLE and CLE target organs [1] | kidney biopsies with DNA filaments bound to LL37 and/or cit-LL37 [1] [%] | anti-LL37/anti-cit-LL37 antibodies in culture supernatants (PBMCs) | anti-HNPs and anti-TT antibodies (PBMCs; SLE cultures) | expression in HD skin ([1]; healthy donor skin) | anti-LL37/cit-LL37 antibody production (PBMCs; PBMCs of psoriasis patients whose T-cells proliferate to LL37, and HD PBMCs) | anti-DNA- and RNA-antibody reactivity (PBMCs; SLE cultures, sequential stimulation with autologous PBMCs and native LL37) |
| --- | --- | --- | --- | --- | --- | --- | --- |
| LLGDFFR(cit)KSKEKIGKEFKR(cit)IVQR(cit)IKDFLR(cit)NLVPR(cit)TES [cit-LL37, citrullinated LL37 (citrullinated at all five arginin positions)] | detected | 57 | became apparent in culture supernatants | did not increase | – | – | – |
| LLGDFFRKSKEKIGKEFKRIVQRIKDFLRNLVPRTES [LL37, native LL37, antimicrobial peptide, 37 aa] | detected | 57 | became apparent in culture supernatants | did not increase | did not express significant amounts | did not lead to significant anti-LL37/cit-LL37 antibody production | became also detectable |
